Reference: patent US20250222120A1, “SYNTHESIS OF NOVEL SMALL MOLECULE CARM1 DEGRADERS, COMPOUNDS FORMED THEREBY, AND PHARMACEUTICAL COMPOSITIONS CONTAINING THEM” (Wisconsin Alumni Research Foundation, priority 2024, published 2025)

What was measured:
[1] = test system: MCF7 cells; assay: Global quantitative proteomic analysis of MCF7 cells by mass spectrometry; assay type: cell-based, Homo sapiens; conditions: 25 nM, 4 h, two-fold cutoff, p-value ≤0.05, 3491 proteins quantified
Experimental: Sample preparation for global proteomics analysis. Sample preparation is similar to the previous report (Ma et al. “Strategy Based on Deglycosylation, Multiprotease, and Hydrophilic Interaction Chromatography for Large-Scale Profiling of Protein Methylation” Anal. Chem. 2017, 89 (23), 12909-12917). Briefly, treated MCF7 cells were harvested by washing with PBS buffer (Gibco, pH 7.4) and lysed in RIPA buffer supplemented with protease inhibitors for 20 min, then protein concentration was determined using a BCA Protein Assay Kit (Thermo Pierce, Rockford, IL) per manufacturer instructions. […] The concentrations of the peptide mixture were measured by peptide assay (Thermo Fisher Scientific). […]
LC-MS/MS data acquisition. Samples were analyzed on an Orbitrap Fusion Lumos Tribrid mass spectrometer (Thermo Fisher Scientific) coupled to a Dionex UltiMate 3000 UPLC system. […]
Data analysis. Protein identification and quantification by MaxQuant (version 1.5.3.8) based database searching, using the integrated Andromeda search engine with FDR <1% at peptide and protein levels. […] For label-free protein quantification (LFQ), the MaxQuant LFQ algorithm was used to quantitate the MS signals, and the proteins' intensities were represented in LFQintesnit (Schaab et al. “Analysis of High Accuracy, Quantitative Proteomics Data in the MaxQB Database” Mol. Cell. Proteomics 2012, 11 (3), M111.014068). […]

[2] = target: T1, CARM1 (Homo sapiens, UniProt Q86X55); assay: CARM1 degradation by western blot in MCF7 cells; assay type: cell-based; set-up: Cell lysates were collected and the CARM1 levels were detected by western blots; endogenous in cells; host or cells: MCF7
T1 sequence (Q86X55 1-608): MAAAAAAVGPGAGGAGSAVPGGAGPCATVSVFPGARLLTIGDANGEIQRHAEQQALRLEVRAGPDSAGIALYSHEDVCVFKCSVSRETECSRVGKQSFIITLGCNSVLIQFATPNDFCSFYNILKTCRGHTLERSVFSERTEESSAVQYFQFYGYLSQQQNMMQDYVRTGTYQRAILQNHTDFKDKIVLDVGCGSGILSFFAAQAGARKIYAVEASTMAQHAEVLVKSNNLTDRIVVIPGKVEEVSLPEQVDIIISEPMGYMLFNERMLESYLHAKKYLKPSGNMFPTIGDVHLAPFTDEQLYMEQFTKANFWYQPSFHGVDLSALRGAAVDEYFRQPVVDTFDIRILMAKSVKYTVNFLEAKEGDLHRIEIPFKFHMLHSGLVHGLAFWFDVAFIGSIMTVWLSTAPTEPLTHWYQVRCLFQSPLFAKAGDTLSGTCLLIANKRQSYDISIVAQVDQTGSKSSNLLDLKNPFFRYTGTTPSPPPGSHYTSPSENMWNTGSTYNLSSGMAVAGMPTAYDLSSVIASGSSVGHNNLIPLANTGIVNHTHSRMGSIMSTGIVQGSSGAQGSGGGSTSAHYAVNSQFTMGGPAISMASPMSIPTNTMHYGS
Experimental: Based on the structure of TPVC3, CARM1 degraders with stable and flexible alkyl linkages 2a-e were designed and synthesized. Degrader 2b bears the same linker length as TPVC3, while 2a has one less carbon. However, we also changed the hydrolytic labile C═N double bond, which is part of the acylhydrazone motif, in TPVC3 to a C—C bond in compound 2b. This change may influence the required optimal linker length. […] Western blot assays were performed to evaluate the CARM1 degradation activity of the compounds after treating MCF7 cells with these degraders at two concentrations (0.5 and 1.0 μM) for 24 h. […] It has one less carbon atom than 2a in terms of length. […] It has the same linker length as 2d.
The treatment dose and time were determined based on time-course and dose titration experiments (FIG. 4B-4C).
Western Blot Assay. Cells were harvested and washed with Dulbecco's phosphate-buffered saline (PBS), then lysed with 1×RIPA lysis buffer (50 mM Tris pH 7.5, 150 mM NaCl, 1% NP-40, 0.5% sodium deoxycholate, and 0.1% sodium dodecyl sulfate) supplemented with 1 mM phenylmethylsulfonyl fluoride, 10 μg/mL aprotinin, 1 μM leupeptin, and 10 μg/mL pepstatin on ice for 20 min. The supernatant was collected after spinning down at 15000 RPM at 4 degrees Celsius for 10 min. The concentration of whole lysates was quantified using a Bradford assay. 50-75 μg of cell lysates was boiled in 4× Laemmli Loading Dye and boiled at 100 degrees Celsius for 10 min. 25 μg were run in 8% SDS-PAGE gels and transferred to nitrocellulose membranes. Blots were blocked in 5% skim milk in PBST [PBS and 0.1% Tween 20] for 45 min, then incubated with primary antibodies at 4 degrees Celsius overnight. Blots were washed in PBST for 30 min, then incubated with horseradish peroxidase-linked secondary antibodies (Jackson ImmunoResearch) for 1 hr. Afterwards, blots were washed in PBST for 15-30 min, then treated with chemiluminescent ECL reagent and imaged with the ChemiDoc Imaging System (Bio-Rad) or Azure 600 (Azure Biosystems). Expression levels of the indicated proteins were probed by the following antibodies: anti-CARM1, anti-me-BAF155, anti-me-PABP1, anti-PABP1,^7 anti-BAF155 (D7F8S, Cell Signaling Technology), anti-PRMT1 (Bethyl), anti-PRMT6 (D-5, Santa Cruz Biotechnology), anti-β-Actin (ABclonal Technology, Sigma-Aldrich), anti-Hsp90 (H-114, Santa Cruz Biotechnology).

[3] = test system: BAF155 me2a; assay: BAF155 me2a level in BT474 cells, western blot; assay type: cell-based; conditions: 10 μM, after 48 h
Source text: (§1) FIGS. 7A-7F. […] Cell lysates were collected and CARM1, methyl-BAF155, total BAF155, methyl-PABP1, and total PABP1 levels were detected by Western blot. […] Cell lysates were collected and CARM1, methyl-BAF155, total BAF155 levels were detected by Western blot. […] Cell proliferation rate normalized to day 0 was plotted. […] Migrated cells were stained with 1% crystal violet and the percentage of migrated cells were plotted. Data mean±s.d. ***. P≤0.001.
(§2) Western Blot Assay. Cells were harvested and washed with Dulbecco's phosphate-buffered saline (PBS), then lysed with 1×RIPA lysis buffer (50 mM Tris pH 7.5, 150 mM NaCl, 1% NP-40, 0.5% sodium deoxycholate, and 0.1% sodium dodecyl sulfate) supplemented with 1 mM phenylmethylsulfonyl fluoride, 10 μg/mL aprotinin, 1 μM leupeptin, and 10 μg/mL pepstatin on ice for 20 min. The supernatant was collected after spinning down at 15000 RPM at 4 degrees Celsius for 10 min. The concentration of whole lysates was quantified using a Bradford assay. 50-75 μg of cell lysates was boiled in 4× Laemmli Loading Dye and boiled at 100 degrees Celsius for 10 min. 25 μg were run in 8% SDS-PAGE gels and transferred to nitrocellulose membranes. Blots were blocked in 5% skim milk in PBST [PBS and 0.1% Tween 20] for 45 min, then incubated with primary antibodies at 4 degrees Celsius overnight. […]

[4] = test system: BAF155 me2a; assay: BAF155 me2a level in MDA-MB-231 cells, western blot; assay type: cell-based; conditions: 10 μM, after 48 h
Source text: as §1, §2

[5] = test system: MDA-MB-231 cells; assay: Transwell migration assay, MDA-MB-231 cells; assay type: cell-based; conditions: 10 μM, transwell, 20 h
Experimental: Transwell Migration Assay. Cells were harvested and washed in serum-free DMEM. The wells of a 24-well plate were filled with 800 μL of DMEM with 10% FBS. Transwell inserts with […] pore size were then added to the wells with DMEM. Cells were resuspended in serum-free DMEM, then 1×10^5 cells in 200 μL were added to the upper chambers. Drug treatments were added to the lower chambers, then incubated for 20 h at 37° C. The cells on the upper surface were removed with cotton swabs. Migratory cells were fixed in 3.7% formaldehyde at room temperature, followed by 100% methanol at −20° C. Fixed cells were stained with 1% crystal violet in 20% methanol for 30 min. The migration area was quantified from five independent fields of view of the lower surface of the membrane under a microscope.

| Compound | Number of significantly changed proteins compared to the DMSO group [1] | CARM1 degradation by negative control [2] | BAF155 me2a level [3] | BAF155 me2a level [4] | Cell migration [5] |
| --- | --- | --- | --- | --- | --- |
| COCCN1CCC(c2cc(CN(C)C(=O)c3cccc(Oc4ccc(OCC(=O)N5CCC(CN6CCC(CN7CCN(CC(=O)N[C@H](C(=O)N8C[C@H](O)C[C@H]8C(=O)N[C@@H](C)c8ccc(-c9scnc9C)cc8)C(C)(C)C)CC7)CC6)CC5)cc4)c3)ccn2)CC1 [Compound 3bN, (2S,4R)-4-hydroxy-1-((S)-2-(2-(4-((1-((1-(2-(4-(3-(((2-(1-(2-methoxyethyl)piperidin-4-yl)pyridin-4-yl)methyl)(methyl)carbamoyl)phenoxy)phenoxy)acetyl)piperidin-4-yl)methyl)piperidin-4-yl)methyl)piperazin-1-yl)acetamido)-3,3-dimethylbutanoyl)-N—((S)-1-(4-(4-methylthiazol-5-yl)phenyl)ethyl)pyrrolidine-2-carboxamide] | 45 | No CARM1 degradation was observed | – | – | – |
| CNCCN1CCC(c2cc(CN(C)C(=O)c3cccc(Oc4ccccc4)c3)ccn2)CC1 [TP-064, reference compound] | – | – | decrease of BAF155 me2a level was observed | decrease of BAF155 me2a level was observed | inhibited cell migration at a similar level |
